# In publication PMC6282620, “Structural and biochemical characterization of Plasmodium falciparum Hsp70‐x reveals functional versatility of its C‐terminal EEVN motif” (Proteins, 2018):
# Where two headings read alike, the source gives them in different places. Where no end group is shown, it is not given here.
# What was measured:
# PfHsp70‐x [1] = molecular target: T1, PfHsp70‐x (Plasmodium falciparum, UniProt K7NTP5); assay: SPR nucleotide (ATP) binding assay; conditions: SPR steady state, PfHsp70‐x immobilized as ligand, ATP 1.25-20 nM, 25°C, PBS-Tween pH 7.4; mean ± SD of three independent assays; read-out: K D (ATP analyte)
# Description: (§1) The nucleotide binding assay was conducted at 25°C using a BioRad ProteOn XPR36 surface plasmon resonance (SPR) as previously described.22 The assay buffer was constituted of filter sterilized and degassed PBS‐Tween [([…], 1.46 mM KH2PO4, 137 mM NaCl, 3 mM KCl, 0.005% [v/v] Tween 20 and 20 mM EDTA; pH 7.4)]. PfHsp70‐x (1 μg mL^−1) and its truncated version, PfHsp70‐xT (1 μg mL^−1) were immobilized onto respective ProteOn HTE sensor chips as ligands. At these concentrations, we achieved 190 response units (RU) for PfHsp70‐x and 195 RU for PfHsp70‐xT per immobilization surface. Varying concentrations (1.25 nM, 2.50 nM, 5 nM 10 nM and 20 nM) of the analyte (ATP) were injected at a flow rate of 100 μL min^−1 in each horizontal channel and association and dissociation was allowed to occur and monitored for 10 minutes. Steady state equilibrium constant data was processed and analyzed using ProteOn Manager software version 3.1.0.6.
# PfHsp70‐xT [2] = molecular target: T2, PfHsp70‐xT (Plasmodium falciparum, UniProt K7NTP5); assay: SPR nucleotide (ATP) binding assay; conditions: SPR steady state, PfHsp70‐xT immobilized as ligand, ATP 1.25-20 nM, 25°C, PBS-Tween pH 7.4; mean ± SD of three independent assays; read-out: K D (ATP analyte)
# Description: as §1
# PfHsp70‐x [3] = molecular target: T1, PfHsp70‐x; assay: SPR peptide substrate binding kinetics; conditions: mean ± SD; for Kd: K D, peptide 1.25-20 nM, 25°C, PBS-Tween; for Kd / ka association rate constant: SPR, PfHsp70‐x ligand; for koff: read-out: kd dissociation rate constant, SPR, PfHsp70‐x ligand
# Description: (§2) Association of PfHsp70‐x/PfHsp70‐xT with synthetic peptides that represent typical Hsp70 substrates26 was investigated using surface plasmon resonance (SPR) analysis as previously described.22, 24 Briefly, PfHsp70‐x and PfHsp70‐xT were immobilized onto respective ProteOn GLC sensor chips as ligands. PfHsp70‐x, PfHsp70‐xT (as ligands) were immobilized at concentrations of 0.5 and 1 μg mL^−1. At these concentrations we achieved 190 response units (RU) for PfHsp70‐x, and 193 RU for PfHsp70‐xT per immobilization surface. The assay was conducted at 25°C. Filter sterilized and degassed PBS‐Tween was used as the running buffer. As analytes, aliquots of peptides, representing typical Hsp70 substrates (NRLLTG, NRNNTG, ALLLMYRR, ANNNMYRR, GFRVVLMYRF, GFRNNNMYRF) were prepared at final concentration of 1.25, 2.50, 5, 10, and 20 nM and were injected at 50 μL min^−1 in each horizontal channel. Association was allowed for 2 minutes, dissociation was monitored for 10 minutes. The assay was repeated in the presence of nucleotides 2 mM ATP/ADP. The final data were determined by substracting the baseline RU (buffer containing ATP/ADP without analyte peptide). The association rate constant, dissociation rate constant and equilibrium constant data were analyzed using ProteOn Manager software version 3.1.0.6. by concatenating the responses of the analyte at variable concentrations.
# PfHsp70‐xT [4] = molecular target: T2, PfHsp70‐xT; assay: SPR peptide substrate binding kinetics; parameters: ka association rate constant: scale not given here; conditions: mean ± SD; for Kd: K D, peptide 1.25-20 nM, 25°C, PBS-Tween; for Kd / ka association rate constant: SPR, PfHsp70‐xT ligand; for koff: read-out: kd dissociation rate constant, SPR, PfHsp70‐xT ligand
# Description: as §2
# PfHsp70‐x [5] = molecular target: T1, PfHsp70‐x; assay: ELISA of direct association with hHop; type: binding; conditions: Hop analyte 0.137-300 nM
# Description: The direct association of hHop with PfHsp70‐x was further confirmed using an enzyme linked immunosorbent assay (ELISA) as previously described27 with minor modifications. Briefly, recombinant PfHsp70‐x/PfHsp70‐xT proteins and control BSA (5 μg/mL) were added to wells overnight in 50 mM NaHCO3, pH 9.3 at 4°C. The wells were washed at least three times with TBST, between each subsequent step. After blocking with 1% BSA in TBST, recombinant PfHop protein (analyte) was added in serial dilutions (0.137–300 nM) in the presence or absence of nucleotides (5 mM ATP/ADP) for 2 hours at 25°C. Then the wells were incubated with α‐PfHop primary antibody for 1 hour. Next, primary antibody was incubated with HRP conjugated goat raised anti‐rabbit IgG for 1 hour. HRP development was assayed with TMB substrate solution (Bio‐Scientific, USA) and monitored at 370 nm using a SpectraMax M3 microplate reader (Molecular Devices, USA) every 5 minutes for 30 minutes.
# PfHsp70‐x [6] = molecular target: T1, PfHsp70‐x; assay: Slot blot assay of direct association with hHop; type: binding
# Description: (§3) Recombinant forms of hHop, control (bovine serum albumin), PfHsp70‐x (positive control) were immobilized onto the nitrocellulose membrane using Bio‐Dot SF apparatus as previously described 22. The proteins were immobilized at final amounts of 2, 4, and 8 μg each respectively per lane. The membrane was blocked with 5% (w/v) fat‐free milk in TBST (50 mM Tris‐HCl pH 7.5, 150 mM NaCl, 0.1% [v/v] Tween 20) and overlaid with either PfHsp70‐x/PfHsp70‐xT (10 μg mL^−1) in the absence and presence of 5 mM ATP/ADP and incubated overnight at 4°C, followed by three washes with TBST for 15 minutes. The nucleotide concentrations were maintained in the subsequent steps of the protocol. Protein was detected by Western blot technique using rabbit raised α‐PfHsp70‐x [1:2000] (Genscript, USA) as primary antibodies and goat raised α‐rabbit IgG secondary HRP‐conjugated antibody [1:4000] (Sigma–Aldrich, USA). Imaging of the protein bands was conducted using the ECL kit as per manufacturer's instructions. The images were captured using ChemiDoc imaging system (Bio‐Rad, USA).
# PfHsp70‐xT [7] = molecular target: T2, PfHsp70‐xT; assay: Slot blot assay of direct association with hHop; type: binding; conditions: hHop immobilized 2, 4, 8 μg, overlaid with PfHsp70‐xT 10 μg/mL
# Description: as §3
# PfHsp70‐x [8] = molecular target: T1, PfHsp70‐x; assay: SPR analysis of association with hHop; type: binding; conditions: 5 mM ATP versus no nucleotide / ADP
# Description: The direct association between PfHsp70‐x and hHop was further explored using SPR analysis. The assay was conducted at 25°C using filter sterilized and degassed PBS‐Tween running buffer [(8 mM Na2HPO4, 1.46 mM KH2PO4, 137 mM NaCl, 3 mM KCl, 0.005% [v/v] Tween 20 and 20 mM EDTA; pH 7.4)] as previously described.22, 24 The recombinant PfHsp70‐x /PfHsp70‐xT (1 μg mL^−1) and BSA (as control) were immobilized onto respective ProteOn GLC sensor chips as ligands. As analyte, the recombinant hHop at varying concentrations (125, 250, 500, 1 000, and 2 000 nM) was passed over the immobilized proteins. The analytes were injected at flow rate of 50 μL min^−1 and association and dissociation occurred in a period of 10 minutes. The assay was then repeated in the presence of 5 mM ADP/ATP. The association rate constant, dissociation rate constant, and equilibrium constant data were processed and analyzed using ProteOn Manager software version 3.1.0.6 involving concatenating the responses of the analyte at variable concentrations.
# T2 sequence (K7NTP5 entry or part of it): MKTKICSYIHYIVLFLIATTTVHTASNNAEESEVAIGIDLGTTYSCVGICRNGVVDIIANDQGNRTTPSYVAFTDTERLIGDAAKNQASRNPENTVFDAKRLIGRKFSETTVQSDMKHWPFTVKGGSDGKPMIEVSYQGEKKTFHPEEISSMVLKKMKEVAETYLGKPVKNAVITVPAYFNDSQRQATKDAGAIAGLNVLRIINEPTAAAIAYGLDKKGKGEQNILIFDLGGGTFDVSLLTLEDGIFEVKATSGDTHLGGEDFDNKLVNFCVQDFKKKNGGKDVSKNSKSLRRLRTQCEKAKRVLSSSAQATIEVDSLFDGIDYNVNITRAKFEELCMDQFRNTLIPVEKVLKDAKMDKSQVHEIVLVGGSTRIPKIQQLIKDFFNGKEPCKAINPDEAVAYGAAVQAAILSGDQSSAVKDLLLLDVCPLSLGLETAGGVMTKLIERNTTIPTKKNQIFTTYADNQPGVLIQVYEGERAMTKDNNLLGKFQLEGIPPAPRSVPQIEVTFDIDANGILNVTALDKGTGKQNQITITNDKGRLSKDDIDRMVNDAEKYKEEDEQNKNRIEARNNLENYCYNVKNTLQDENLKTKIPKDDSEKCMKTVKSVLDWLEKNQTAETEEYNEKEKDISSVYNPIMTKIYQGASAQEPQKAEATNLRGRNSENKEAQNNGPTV
# T1 sequence (K7NTP5 entry or part of it): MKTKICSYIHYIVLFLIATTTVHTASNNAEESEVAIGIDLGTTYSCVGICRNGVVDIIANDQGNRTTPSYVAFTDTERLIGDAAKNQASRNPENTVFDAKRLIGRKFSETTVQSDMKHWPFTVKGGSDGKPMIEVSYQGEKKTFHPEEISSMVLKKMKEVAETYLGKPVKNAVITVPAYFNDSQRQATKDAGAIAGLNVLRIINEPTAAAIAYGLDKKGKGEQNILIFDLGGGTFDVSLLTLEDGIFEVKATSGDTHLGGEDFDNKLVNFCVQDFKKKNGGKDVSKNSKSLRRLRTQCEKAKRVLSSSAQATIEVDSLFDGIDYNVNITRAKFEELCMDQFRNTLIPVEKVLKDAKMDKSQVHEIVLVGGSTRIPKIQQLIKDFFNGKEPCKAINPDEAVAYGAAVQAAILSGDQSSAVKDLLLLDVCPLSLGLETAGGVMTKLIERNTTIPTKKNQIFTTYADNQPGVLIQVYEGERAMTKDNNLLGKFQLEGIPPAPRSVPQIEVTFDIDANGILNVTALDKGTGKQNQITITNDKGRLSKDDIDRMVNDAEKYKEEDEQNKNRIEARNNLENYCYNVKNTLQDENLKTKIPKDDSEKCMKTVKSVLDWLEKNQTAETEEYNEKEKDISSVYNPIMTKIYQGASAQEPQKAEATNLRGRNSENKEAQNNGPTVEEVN
compound,measurement,setting,value
Nc1ncnc2c1ncn2[C@@H]1O[C@H](COP(=O)(O)OP(=O)(O)OP(=O)(O)O)[C@@H](O)[C@H]1O [ATP],Kd,PfHsp70‐x [1],110 nM
same,Kd,PfHsp70‐xT [2],11200 nM
ANNNMYRR [ANNNMYRR],Kd,PfHsp70‐x [3]; no nucleotide (NN),2.21 nM
GFTNNNMYRF [GFTNNNMYRF],Kd,PfHsp70‐x [3]; 2 mM ADP,6.25 nM
same,Kd,PfHsp70‐x [3]; no nucleotide (NN),2.4 nM
same,Kd,PfHsp70‐xT [4]; 2 mM ADP,1.4 nM
same,Kd,PfHsp70‐xT [4]; no nucleotide (NN),2.2 nM
"GFTVVLMYRF [GFTVVLMYRF, reference compound]",koff,PfHsp70‐x [3]; + ADP,1e-05 s⁻¹
same,koff,PfHsp70‐x [3]; + ATP,0.000117 s⁻¹
same,koff,PfHsp70‐x [3]; no nucleotide,1.03e-05 s⁻¹
"NRLLTG [NRLLTG, reference compound]",ka association rate constant,PfHsp70‐x [3]; + ADP,1.62 (± 0. 22) 1/ Ms
same,ka association rate constant,PfHsp70‐x [3]; + ATP,1.21 (± 0.23) 1/ Ms
same,koff,PfHsp70‐x [3]; + ADP,1.01e-05 s⁻¹
same,koff,PfHsp70‐x [3]; + ATP,1.01e-05 s⁻¹
same,koff,PfHsp70‐x [3]; no nucleotide,9.97e-06 s⁻¹
same,ka association rate constant,PfHsp70‐xT [4]; + ADP,6.0 (± 0.51) 1/ Ms
same,ka association rate constant,PfHsp70‐xT [4]; no nucleotide,3.15 (± 0.31) 1/ Ms
same,koff,PfHsp70‐xT [4]; + ADP,1e-05 s⁻¹
same,koff,PfHsp70‐xT [4]; + ATP,0.000161 s⁻¹
same,koff,PfHsp70‐xT [4]; no nucleotide,8.67e-06 s⁻¹
NRNNTG [NRNNTG],Kd,PfHsp70‐x [3]; 2 mM ADP,4.31 nM
same,Kd,PfHsp70‐x [3]; no nucleotide (NN),6.91 nM
same,ka association rate constant,PfHsp70‐x [3]; + ADP,2.55 (± 0.23) 1/ Ms
same,ka association rate constant,PfHsp70‐x [3]; + ATP,7.33 (± 0.22) 1/ Ms
same,ka association rate constant,PfHsp70‐x [3]; no nucleotide,2.43 (± 0.45) 1/ Ms
same,koff,PfHsp70‐x [3]; + ADP,1.03e-07 s⁻¹
same,koff,PfHsp70‐x [3]; + ATP,1.01e-06 s⁻¹
same,koff,PfHsp70‐x [3]; no nucleotide,9.49e-07 s⁻¹
same,Kd,PfHsp70‐xT [4]; 2 mM ADP,1.69 nM
same,Kd,PfHsp70‐xT [4]; no nucleotide (NN),7.92 nM
same,ka association rate constant,PfHsp70‐xT [4]; + ADP,5.96 (±0.1) 1/ Ms
same,ka association rate constant,PfHsp70‐xT [4]; + ATP,9.37 (±0.17) 1/ Ms
same,ka association rate constant,PfHsp70‐xT [4]; no nucleotide,3.52 (± 0.18) 1/ Ms
same,koff,PfHsp70‐xT [4]; + ADP,1.01e-08 s⁻¹
same,koff,PfHsp70‐xT [4]; + ATP,1.01e-05 s⁻¹
same,koff,PfHsp70‐xT [4]; no nucleotide,2.79e-08 s⁻¹
hHop: recombinant N-terminally His-tagged human Hsp70‐Hsp90 organizing protein,association with hHop in ELISA,"PfHsp70‐x [5]; PfHsp70‐x immobilized 5 μg/mL, 2 h, 25°C, no nucleotide",occurs in a concentration dependent form
same,association with hHop in ELISA,"PfHsp70‐x [5]; PfHsp70‐x immobilized, 5 mM ADP",occurs in a concentration dependent form
same,association with hHop in ELISA,"PfHsp70‐x [5]; PfHsp70‐x immobilized, 5 mM ATP",inhibited the association
same,association with hHop in slot blot,"PfHsp70‐x [6]; hHop immobilized 2, 4, 8 μg, overlaid with PfHsp70‐x 10 μg/mL, no nucleotide",occur in a concentration‐dependent manner
same,association with hHop in slot blot,"PfHsp70‐x [6]; overlaid with PfHsp70‐x, 5 mM ADP",appeared to enhance the association
same,association with hHop in slot blot,"PfHsp70‐x [6]; overlaid with PfHsp70‐x, 5 mM ATP",abrogated the interaction
same,association with hHop in slot blot,PfHsp70‐xT [7],not observed
same,inhibition of the PfHsp70‐x-hHop association by ATP,PfHsp70‐x [8],at least tenfold
